System: E-selectin expression on HUVEC
Assay: Induction of E-selectin expression on HUVEC by TNFα (flow cytometry, anti-E-selectin antibody)
Type: cell-based, human
Settings: with TNFα stimulation
Protocol: Subsequent studies were performed to investigate the ability of liposomes containing Compound 3 to recognize and bind to cells under conditions where E-selectin is expressed. For these liposomes with and without Compound 3 were prepared with a fluorescent phospholipid membrane marker (Composition 4 and Composition 3, respectively) allowing for detection by flow cytometry. Liposomes were incubated for 60 min at 37° C. with cultures of human umbilical vein endothelial cells (HUVEC) pretreated in media deficient in TNFα or supplemented with TNFα to induce E-selectin expression. Association of fluorescein labeled liposomes with cell preparations by flow cytometry was then determined.
The flow cytometry-based assay used liposomes containing 0% or 5% Compound 3 (L4 and L5, respectively). Initial studies defined that only TNFα-stimulated HUVEC but not unstimulated HUVEC express E-selectin.

TNFα
HUVEC express E-selectin: 88.696%
